PubChem BioAssay AID248 (DTP/NCI, 2004)
Values joined by “and” are separate entries in the source; they are usually repeats but may differ in a detail not shown here. Identical values can stand only once. Toxic doses and inconclusive results are not listed. Rule as the data show it: active = T/C of 150% or more; inactive = T/C below 125%.

Test system: L1210 leukemia ip in BDF1 mice, survival T/C
Assay: NCI In Vivo Anticancer Drug Screen. Data for tumor model L1210 Leukemia (intraperitoneal) in B6D2F1 (BDF1) mice
Conditions: endpoint: mean survival time, higher = longer survival
Procedure, shortened: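 Survival endpoint. Drug-treated group vs vehicle group, expressed as T divided by C. Tumor passaged by transplantation.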

[1] = dose: 100.0 mg/kg/injection, schedule: Q01DX001 (ip), vehicle: Klucel (hydroxypropylcellulose) (HPC)
[2] = dose: 100.0 mg/kg/injection, schedule: Q01DX009 (ip), vehicle: Klucel (hydroxypropylcellulose) (HPC)
[3] = dose: 200.0 mg/kg/injection, schedule: Q01DX001 (ip), vehicle: Klucel (hydroxypropylcellulose) (HPC)
[4] = dose: 200.0 mg/kg/injection, schedule: Q01DX009 (ip), vehicle: Klucel (hydroxypropylcellulose) (HPC)
[5] = dose: 400.0 mg/kg/injection, schedule: Q01DX001 (ip), vehicle: Klucel (hydroxypropylcellulose) (HPC)
[6] = dose: 400.0 mg/kg/injection, schedule: Q01DX001 (ip), vehicle: saline

Measured: T/C

NC(CSSCC(N)=NC1CCCCC1)=NC1CCCCC1
inactive: dose: 3.0 mg/kg/injection, schedule: Q01DX009 (ip), vehicle: saline 96 % of control and 103 % of control | dose: 6.0 mg/kg/injection, schedule: Q01DX009 (ip), vehicle: saline 106 % of control and 90 % of control | dose: 6.25 mg/kg/injection, schedule: Q04DX002 (ip), vehicle: saline with Tween-80 124 % of control | dose: 12.0 mg/kg/injection, schedule: Q01DX009 (ip), vehicle: saline 103 % of control and 104 % of control | dose: 12.5 mg/kg/injection, schedule: Q01DX001 (ip), vehicle: saline with Tween-80 94 % of control | dose: 12.5 mg/kg/injection, schedule: Q01DX009 (ip), vehicle: carboxymethylcellulose (CMC) 100 % of control and 105 % of control | dose: 12.5 mg/kg/injection, schedule: Q04DX002 (ip), vehicle: saline with Tween-80 109 % of control | dose: 25.0 mg/kg/injection, schedule: Q01DX001 (ip), vehicle: saline with Tween-80 100 % of control | dose: 25.0 mg/kg/injection, schedule: Q01DX009 (ip), vehicle: carboxymethylcellulose (CMC) 103 % of control | dose: 25.0 mg/kg/injection, schedule: Q04DX002 (ip), vehicle: carboxymethylcellulose (CMC) 96 % of control and 91 % of control | dose: 25.0 mg/kg/injection, schedule: Q04DX002 (ip), vehicle: saline with Tween-80 102 % of control | dose: 50.0 mg/kg/injection, schedule: Q04DX002 (ip), vehicle: carboxymethylcellulose (CMC) 95 % of control | dose: 100.0 mg/kg/injection, schedule: Q04DX003 (ip), vehicle: carboxymethylcellulose (CMC) 104 % of control | dose: 200.0 mg/kg/injection, schedule: Q04DX003 (ip), vehicle: carboxymethylcellulose (CMC) 96 % of control

CC1=CC(=O)OC(C)(C)C1
inactive: dose: 100.0 mg/kg/injection, schedule: Q04DX003 (ip), vehicle: saline 97 % of control | dose: 200.0 mg/kg/injection, schedule: Q04DX003 (ip), vehicle: saline 96 % of control | dose: 400.0 mg/kg/injection, schedule: Q04DX003 (ip), vehicle: saline 99 % of control

CC1(C)c2ccccc2C(=O)/C(=C/c2ccccc2)C1NC1CCCCC1 (centres undefined)
inactive: [1] 95 % of control | [2] 102 % of control | [3] 93 % of control | [4] 96 % of control | [5] 92 % of control | dose: 400.0 mg/kg/injection, schedule: Q01DX009 (ip), vehicle: Klucel (hydroxypropylcellulose) (HPC) 106 % of control

COc1ccc(NC(=S)Nc2ccccc2)cc1
inactive: dose: 100.0 mg/kg/injection, schedule: Q04DX002 (ip), vehicle: saline with Tween-80 101 % of control | dose: 200.0 mg/kg/injection, schedule: Q04DX002 (ip), vehicle: saline with Tween-80 108 % of control | dose: 400.0 mg/kg/injection, schedule: Q04DX002 (ip), vehicle: saline with Tween-80 108 % of control

CN(C)c1ccc(/C=N/NC(=O)c2cccc3ccccc23)c(Cl)c1
inactive: [6] 90 % of control

O=C(O)/C=C/c1c2ccc(=O)cc-2oc2cc(O)ccc12
inactive: dose: 100.0 mg/kg/injection, schedule: Q04DX003 (ip), vehicle: Klucel (hydroxypropylcellulose) (HPC) 96 % of control | dose: 200.0 mg/kg/injection, schedule: Q04DX003 (ip), vehicle: Klucel (hydroxypropylcellulose) (HPC) 91 % of control | dose: 400.0 mg/kg/injection, schedule: Q04DX003 (ip), vehicle: Klucel (hydroxypropylcellulose) (HPC) 105 % of control

Cc1ccc(C)c(NC(=O)Nc2cc(C)on2)c1
inactive: dose: 100.0 mg/kg/injection, schedule: Q01DX009 (ip), vehicle: saline with Tween-80 86 % of control | dose: 200.0 mg/kg/injection, schedule: Q01DX009 (ip), vehicle: saline with Tween-80 97 % of control | dose: 400.0 mg/kg/injection, schedule: Q01DX009 (ip), vehicle: saline with Tween-80 94 % of control

Clc1nc(Sc2ccc(Br)cc2)c(Cl)c(Sc2ccc(Br)cc2)n1
inactive: dose: 62.5 mg/kg/injection, schedule: Q01DX001 (ip), vehicle: Klucel (hydroxypropylcellulose) (HPC) 95 % of control and 89 % of control | dose: 125.0 mg/kg/injection, schedule: Q01DX001 (ip), vehicle: Klucel (hydroxypropylcellulose) (HPC) 94 % of control | dose: 250.0 mg/kg/injection, schedule: Q01DX001 (ip), vehicle: Klucel (hydroxypropylcellulose) (HPC) 94 % of control and 98 % of control

O=Cc1cc(C(=O)c2ccccn2)c2cc(Cl)cc(Cl)c2n1
inactive: [1] 94 % of control | [2] 107 % of control | [3] 89 % of control | [4] 96 % of control | [5] 94 % of control

O=S(=O)(/C=C(/Br)c1ccccc1)c1ccccc1
inactive: dose: 100.0 mg/kg/injection, schedule: Q01DX001 (ip), vehicle: saline 92 % of control | dose: 200.0 mg/kg/injection, schedule: Q01DX001 (ip), vehicle: saline 97 % of control | [6] 95 % of control
